Laboratory results published in PubChem BioAssay AID1963843 (Molecular Pharmacology Branch, DTP, NCI, 2024).

System: 616215-338-R-J1-PDC complex spheroid viability
Assay: Anticancer human tumor 616215-338-R-J1-PDC patient-derived colon adenocarcinoma cell line growth inhibition [POLQ]
Conditions: for IC50: curve of first compound; for viability, T/C: stronger effect = lower value
Method in brief: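 Patient-derived tumour cells were co-cultured with HUVEC and mesenchymal stem cells as multicellular spheroids at 37 °C. They were treated with POLQ inhibitors (novobiocin, ART-558, RP6685) alone or combined with other agents. Top concentrations were at or near clinical Cmax (otherwise 10 microM; SN-38 at 1 microM), decreasing in half-log steps.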

[1] = second compound 0.0316 µM, first compound 0.0316 µM
[2] = second compound 0.0316 µM, first compound 0.1 µM
[3] = second compound 0.0316 µM, first compound 0.316 µM
[4] = second compound 0.0316 µM, first compound 1 µM
[5] = second compound 0.0316 µM, first compound 3.16 µM
[6] = second compound 0.0316 µM, first compound 10 µM
[7] = second compound 0.1 µM, first compound 0.0316 µM
[8] = second compound 0.1 µM, first compound 0.1 µM
[9] = second compound 0.1 µM, first compound 0.316 µM
[10] = second compound 0.1 µM, first compound 1 µM
[11] = second compound 0.1 µM, first compound 3.16 µM
[12] = second compound 0.1 µM, first compound 10 µM
[13] = second compound 0.316 µM, first compound 0.0316 µM
[14] = second compound 0.316 µM, first compound 0.1 µM
[15] = second compound 0.316 µM, first compound 0.316 µM
[16] = second compound 0.316 µM, first compound 1 µM
[17] = second compound 0.316 µM, first compound 3.16 µM
[18] = second compound 0.316 µM, first compound 10 µM
[19] = second compound 1 µM, first compound 0.0316 µM
[20] = second compound 1 µM, first compound 0.1 µM
[21] = second compound 1 µM, first compound 0.316 µM
[22] = second compound 1 µM, first compound 1 µM
[23] = second compound 1 µM, first compound 3.16 µM
[24] = second compound 1 µM, first compound 10 µM
[25] = second compound 3.16 µM, first compound 0.0316 µM
[26] = second compound 3.16 µM, first compound 0.1 µM
[27] = second compound 3.16 µM, first compound 0.316 µM
[28] = second compound 3.16 µM, first compound 1 µM
[29] = second compound 3.16 µM, first compound 3.16 µM
[30] = second compound 3.16 µM, first compound 10 µM
[31] = second compound 10 µM, first compound 0.0316 µM
[32] = second compound 10 µM, first compound 0.1 µM
[33] = second compound 10 µM, first compound 0.316 µM
[34] = second compound 10 µM, first compound 1 µM
[35] = second compound 10 µM, first compound 3.16 µM
[36] = second compound 10 µM, first compound 10 µM
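Also: spheroids exposed to compounds for one week before readout.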
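For viability, T/C in this document: percent viability relative to DMSO vehicle wells taken as 100%.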

## CC1COCCN1c1cc(-c2ccnn2C)c2ccnc(-c3ccn[nH]3)c2n1 (stereo not drawn) + Nc1ccc(C#CCN(C(=O)Cc2ncc(C(F)(F)F)cc2C(F)(F)F)c2ccc(F)cc2)nn1
Second compound 0.0316 µM
  IC50: 155 nM
Second compound 0.1 µM
  IC50: 165 nM
Second compound 0.316 µM
  IC50: 190 nM
Second compound 1 µM
  IC50: 115 nM
Second compound 3.16 µM
  IC50: 192 nM
Second compound 10 µM
  IC50: 154 nM
[1]
  viability, T/C: 86%
[2]
  viability, T/C: 56.8%
[3]
  viability, T/C: 38.9%
[4]
  viability, T/C: 31.7%
[5]
  viability, T/C: 25.9%
[6]
  viability, T/C: 27.4%
[7]
  viability, T/C: 93.8%
[8]
  viability, T/C: 60.6%
[9]
  viability, T/C: 34.7%
[10]
  viability, T/C: 29.8%
[11]
  viability, T/C: 24.5%
[12]
  viability, T/C: 19.4%
[13]
  viability, T/C: 102%
[14]
  viability, T/C: 67.4%
[15]
  viability, T/C: 35.2%
[16]
  viability, T/C: 26.8%
[17]
  viability, T/C: 22.4%
[18]
  viability, T/C: 18.9%
[19]
  viability, T/C: 101%
[20]
  viability, T/C: 52.9%
[21]
  viability, T/C: 29%
[22]
  viability, T/C: 26.8%
[23]
  viability, T/C: 21.6%
[24]
  viability, T/C: 23.1%
[25]
  viability, T/C: 96.7%
[26]
  viability, T/C: 59.5%
[27]
  viability, T/C: 45.8%
[28]
  viability, T/C: 24.8%
[29]
  viability, T/C: 23.6%
[30]
  viability, T/C: 18.7%
[31]
  viability, T/C: 104%
[32]
  viability, T/C: 56.4%
[33]
  viability, T/C: 40.1%
[34]
  viability, T/C: 25.1%
[35]
  viability, T/C: 20.1%
[36]
  viability, T/C: 22.2%

## CCc1cc2c(N3CCc4c(cc(Cn5ccnc5)cc4-c4cn(C)nc4C(F)(F)F)C3=O)cc(C)nc2c(OC)n1 + Nc1ccc(C#CCN(C(=O)Cc2ncc(C(F)(F)F)cc2C(F)(F)F)c2ccc(F)cc2)nn1
Second compound 0.0316 µM
  IC50: 2530 nM
Second compound 0.1 µM
  IC50: 2960 nM
Second compound 0.316 µM
  IC50: 2460 nM
Second compound 1 µM
  IC50: 2410 nM
Second compound 3.16 µM
  IC50: 2620 nM
Second compound 10 µM
  IC50: 1420 nM
[1]
  viability, T/C: 106%
[2]
  viability, T/C: 108%
[3]
  viability, T/C: 80.2%
[4]
  viability, T/C: 62%
[5]
  viability, T/C: 51%
[6]
  viability, T/C: 38.5%
[7]
  viability, T/C: 123%
[8]
  viability, T/C: 101%
[9]
  viability, T/C: 68.7%
[10]
  viability, T/C: 60.9%
[11]
  viability, T/C: 54.3%
[12]
  viability, T/C: 40%
[13]
  viability, T/C: 105%
[14]
  viability, T/C: 111%
[15]
  viability, T/C: 75.8%
[16]
  viability, T/C: 61.5%
[17]
  viability, T/C: 51.5%
[18]
  viability, T/C: 40.1%
[19]
  viability, T/C: 115%
[20]
  viability, T/C: 108%
[21]
  viability, T/C: 91.5%
[22]
  viability, T/C: 57%
[23]
  viability, T/C: 51.8%
[24]
  viability, T/C: 41.9%
[25]
  viability, T/C: 112%
[26]
  viability, T/C: 111%
[27]
  viability, T/C: 78.2%
[28]
  viability, T/C: 63.6%
[29]
  viability, T/C: 51.1%
[30]
  viability, T/C: 38.4%
[31]
  viability, T/C: 99.4%
[32]
  viability, T/C: 98.2%
[33]
  viability, T/C: 74.9%
[34]
  viability, T/C: 53.3%
[35]
  viability, T/C: 45.8%
[36]
  viability, T/C: 41.4%

## COc1cc2cc(C(=O)CCC(=O)O)sc2cc1OC + Nc1ccc(C#CCN(C(=O)Cc2ncc(C(F)(F)F)cc2C(F)(F)F)c2ccc(F)cc2)nn1
Second compound 0.0316 µM
  IC50: > 10000 nM
Second compound 0.1 µM
  IC50: > 10000 nM
Second compound 0.316 µM
  IC50: > 10000 nM
Second compound 1 µM
  IC50: > 10000 nM
Second compound 3.16 µM
  IC50: > 10000 nM
Second compound 10 µM
  IC50: > 10000 nM
[1]
  viability, T/C: 109%
[2]
  viability, T/C: 105%
[3]
  viability, T/C: 110%
[4]
  viability, T/C: 108%
[5]
  viability, T/C: 109%
[6]
  viability, T/C: 102%
[7]
  viability, T/C: 108%
[8]
  viability, T/C: 106%
[9]
  viability, T/C: 117%
[10]
  viability, T/C: 104%
[11]
  viability, T/C: 119%
[12]
  viability, T/C: 108%
[13]
  viability, T/C: 112%
[14]
  viability, T/C: 108%
[15]
  viability, T/C: 105%
[16]
  viability, T/C: 108%
[17]
  viability, T/C: 113%
[18]
  viability, T/C: 99.9%
[19]
  viability, T/C: 110%
[20]
  viability, T/C: 102%
[21]
  viability, T/C: 101%
[22]
  viability, T/C: 113%
[23]
  viability, T/C: 115%
[24]
  viability, T/C: 102%
[25]
  viability, T/C: 108%
[26]
  viability, T/C: 101%
[27]
  viability, T/C: 108%
[28]
  viability, T/C: 103%
[29]
  viability, T/C: 107%
[30]
  viability, T/C: 101%
[31]
  viability, T/C: 95.3%
[32]
  viability, T/C: 91.1%
[33]
  viability, T/C: 86.8%
[34]
  viability, T/C: 97.2%
[35]
  viability, T/C: 89.3%
[36]
  viability, T/C: 79.2%

## COc1ccc([C@@H](O)c2cc(-c3ncnc4cc(N5CCOCC5)ccc34)c(F)cc2Cl)nn1 + Nc1ccc(C#CCN(C(=O)Cc2ncc(C(F)(F)F)cc2C(F)(F)F)c2ccc(F)cc2)nn1
Second compound 0.0316 µM
  IC50: > 10000 nM
Second compound 0.1 µM
  IC50: 9540 nM
Second compound 0.316 µM
  IC50: > 10000 nM
Second compound 1 µM
  IC50: > 10000 nM
Second compound 3.16 µM
  IC50: > 10000 nM
Second compound 10 µM
  IC50: 4730 nM
[1]
  viability, T/C: 90.8%
[2]
  viability, T/C: 106%
[3]
  viability, T/C: 96%
[4]
  viability, T/C: 93%
[5]
  viability, T/C: 95.8%
[6]
  viability, T/C: 61.9%
[7]
  viability, T/C: 90.6%
[8]
  viability, T/C: 115%
[9]
  viability, T/C: 106%
[10]
  viability, T/C: 94%
[11]
  viability, T/C: 92.3%
[12]
  viability, T/C: 47.7%
[13]
  viability, T/C: 97.4%
[14]
  viability, T/C: 92.1%
[15]
  viability, T/C: 96.9%
[16]
  viability, T/C: 107%
[17]
  viability, T/C: 90.3%
[18]
  viability, T/C: 52.7%
[19]
  viability, T/C: 107%
[20]
  viability, T/C: 118%
[21]
  viability, T/C: 94.5%
[22]
  viability, T/C: 87.2%
[23]
  viability, T/C: 94.4%
[24]
  viability, T/C: 49.8%
[25]
  viability, T/C: 113%
[26]
  viability, T/C: 109%
[27]
  viability, T/C: 93.7%
[28]
  viability, T/C: 85.7%
[29]
  viability, T/C: 77.7%
[30]
  viability, T/C: 47.9%
[31]
  viability, T/C: 103%
[32]
  viability, T/C: 99.9%
[33]
  viability, T/C: 88.7%
[34]
  viability, T/C: 76.5%
[35]
  viability, T/C: 45.8%
[36]
  viability, T/C: 50%
